The values that follow come from PubChem BioAssay AID248 (DTP/NCI, 2004).

Where “and” joins values, the source holds several entries; their conditions need not be identical. Identical values can stand only once. Toxic doses and inconclusive results are not listed.

The assay relates to L1210 leukemia ip in BDF1 mice, survival T/C. Nature of the assay: NCI In Vivo Anticancer Drug Screen. Data for tumor model L1210 Leukemia (intraperitoneal) in B6D2F1 (BDF1) mice. The following applies: endpoint: mean survival time, higher = longer survival. In outline:
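Read-out is survival time, reported as the treated-group measurement over the vehicle-control measurement.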

Setting [1] is: dose: 100.0 mg/kg/injection, schedule: Q04DX002 (ip), vehicle: Klucel (hydroxypropylcellulose) (HPC).
[2] abbreviates: dose: 100.0 mg/kg/injection, schedule: Q04DX003 (ip), vehicle: Klucel (hydroxypropylcellulose) (HPC).
The mark [3] stands for this setting: dose: 200.0 mg/kg/injection, schedule: Q01DX009 (ip), vehicle: Klucel (hydroxypropylcellulose) (HPC).
Where [4] appears, read: dose: 200.0 mg/kg/injection, schedule: Q04DX002 (ip), vehicle: Klucel (hydroxypropylcellulose) (HPC).
Where [5] appears, read: dose: 200.0 mg/kg/injection, schedule: Q04DX003 (ip), vehicle: Klucel (hydroxypropylcellulose) (HPC).
The mark [6] stands for this setting: dose: 400.0 mg/kg/injection, schedule: Q01DX009 (ip), vehicle: Klucel (hydroxypropylcellulose) (HPC).
Setting [7] is: dose: 400.0 mg/kg/injection, schedule: Q04DX002 (ip), vehicle: Klucel (hydroxypropylcellulose) (HPC).
Where [8] appears, read: dose: 400.0 mg/kg/injection, schedule: Q04DX003 (ip), vehicle: Klucel (hydroxypropylcellulose) (HPC).
Setting [9] is: dose: 100.0 mg/kg/injection, schedule: Q01DX001 (ip), vehicle: carboxymethylcellulose (CMC).
[10] abbreviates: dose: 200.0 mg/kg/injection, schedule: Q01DX001 (ip), vehicle: carboxymethylcellulose (CMC).
Where [11] appears, read: dose: 400.0 mg/kg/injection, schedule: Q01DX001 (ip), vehicle: carboxymethylcellulose (CMC).
Setting [12] is: dose: 100.0 mg/kg/injection, schedule: Q01DX009 (ip), vehicle: Klucel (hydroxypropylcellulose) (HPC).

As for `COc1cc2c(cc1OC)C(OC)N(C)c1c-2ccc2cc3c(cc12)OCO3` (stereo not drawn), the T/C is 106 % of control (dose: 5.0 mg/kg/injection, schedule: Q01DX009 (ip), vehicle: Klucel (hydroxypropylcellulose) (HPC)); 106 % of control (dose: 10.0 mg/kg/injection, schedule: Q01DX009 (ip), vehicle: Klucel (hydroxypropylcellulose) (HPC)); 123 % of control (dose: 10.0 mg/kg/injection, schedule: Q01DX009 (ip), vehicle: saline); 95 % of control (dose: 20.0 mg/kg/injection, schedule: Q01DX009 (ip), vehicle: Klucel (hydroxypropylcellulose) (HPC)); 163 % of control (dose: 20.0 mg/kg/injection, schedule: Q01DX009 (ip), vehicle: steriod suspending solution); 123 % of control (dose: 20.0 mg/kg/injection, schedule: Q04DX003 (ip), vehicle: saline). The T/C reads like this: (dose: 40.0 mg/kg/injection, schedule: Q01DX009 (ip), vehicle: Klucel (hydroxypropylcellulose) (HPC)) 113 % of control; (dose: 40.0 mg/kg/injection, schedule: Q04DX003 (ip), vehicle: saline) 121 % of control; (dose: 80.0 mg/kg/injection, schedule: Q01DX009 (ip), vehicle: Klucel (hydroxypropylcellulose) (HPC)) 111 % of control; (dose: 80.0 mg/kg/injection, schedule: Q04DX003 (ip), vehicle: saline) 124 % of control; under setting [1], 118 % of control and 119 % of control; under setting [2], 116 % of control. Further, the T/C is, setting by setting: (dose: 160.0 mg/kg/injection, schedule: Q01DX009 (ip), vehicle: Klucel (hydroxypropylcellulose) (HPC)) 109 % of control; (dose: 160.0 mg/kg/injection, schedule: Q04DX003 (ip), vehicle: saline) 112 % of control; under setting [3], 122 % of control; under setting [4], 123 % of control; under setting [5], 111 % of control; (dose: 320.0 mg/kg/injection, schedule: Q01DX009 (ip), vehicle: Klucel (hydroxypropylcellulose) (HPC)) 111 % of control. Also, the T/C runs as follows: under setting [6], 124 % of control; under setting [7], 152 % of control; under setting [8], 106 % of control.

On to `Cn1nc(NC(=O)C(C)(C)C)c(C#N)c1C#N`, for which the T/C reads like this: (dose: 50.0 mg/kg/injection, schedule: Q04DX002 (ip), vehicle: saline with Tween-80) 95 % of control; (dose: 100.0 mg/kg/injection, schedule: Q04DX002 (ip), vehicle: saline with Tween-80) 95 % of control; (dose: 200.0 mg/kg/injection, schedule: Q04DX002 (ip), vehicle: saline with Tween-80) 98 % of control.

Turning to `Nc1ccc2c(c1)-c1ccc(F)cc1C2=O`, the T/C is, setting by setting: under setting [9], 91 % of control; under setting [10], 91 % of control; under setting [11], 89 % of control.

For the compound `C[C@]12CCC(=O)C=C1CC[C@@H]1[C@@H]2[C@@H](O)C[C@@]2(C)[C@H]1CC[C@]2(O)C(=O)CO`, the T/C by setting is: (dose: 12.0 mg/kg/injection, schedule: Q01DX015 (sc), vehicle: steriod suspending solution) 100 % of control; (dose: 25.0 mg/kg/injection, schedule: Q01DX015 (sc), vehicle: steriod suspending solution) 100 % of control; (dose: 50.0 mg/kg/injection, schedule: Q01DX015 (sc), vehicle: steriod suspending solution) 102 % of control; (dose: 100.0 mg/kg/injection, schedule: Q01DX001 (sc), vehicle: steriod suspending solution) 102 % of control; (dose: 100.0 mg/kg/injection, schedule: Q01DX Z (sc), vehicle: steriod suspending solution) 101 % of control; (dose: 200.0 mg/kg/injection, schedule: Q01DX001 (sc), vehicle: steriod suspending solution) 108 % of control. In addition, the T/C is, setting by setting: (dose: 200.0 mg/kg/injection, schedule: Q01DX Z (sc), vehicle: steriod suspending solution) 102 % of control; (dose: 400.0 mg/kg/injection, schedule: Q01DX001 (sc), vehicle: steriod suspending solution) 108 % of control; (dose: 400.0 mg/kg/injection, schedule: Q01DX Z (sc), vehicle: steriod suspending solution) 102 % of control; (dose: 800.0 mg/kg/injection, schedule: Q01DX Z (sc), vehicle: steriod suspending solution) 94 % of control; (dose: 1000.0 mg/kg/injection, schedule: Q01DX015 (sc), vehicle: steriod suspending solution) 104 % of control.

Consider `CNC(=O)Oc1ccc(SC)c(C)c1`, for which the T/C runs as follows: (dose: 0.37 mg/kg/injection, schedule: Q01DX009 (ip), vehicle: Klucel (hydroxypropylcellulose) (HPC)) 94 % of control; (dose: 0.75 mg/kg/injection, schedule: Q01DX009 (ip), vehicle: Klucel (hydroxypropylcellulose) (HPC)) 97 % of control; (dose: 1.5 mg/kg/injection, schedule: Q01DX009 (ip), vehicle: Klucel (hydroxypropylcellulose) (HPC)) 102 % of control and 103 % of control; (dose: 5.0 mg/kg/injection, schedule: Q01DX001 (ip), vehicle: carboxymethylcellulose (CMC)) 86 % of control; (dose: 10.0 mg/kg/injection, schedule: Q01DX001 (ip), vehicle: carboxymethylcellulose (CMC)) 94 % of control.

In the case of `N=C(N)c1ccc(C(=N)N)cc1`, the T/C is 95 % of control (dose: 25.0 mg/kg/injection, schedule: Q01DX009 (ip), vehicle: water); 95 % of control and 99 % of control (dose: 50.0 mg/kg/injection, schedule: Q01DX009 (ip), vehicle: water); 97 % of control and 103 % of control (dose: 100.0 mg/kg/injection, schedule: Q01DX009 (ip), vehicle: water).

For `CC(O)C(Cl)(Cl)Cl` (stereo not drawn), the T/C by setting is: (dose: 75.0 mg/kg/injection, schedule: Q01DX001 (ip), vehicle: carboxymethylcellulose (CMC)) 100 % of control; (dose: 150.0 mg/kg/injection, schedule: Q01DX001 (ip), vehicle: carboxymethylcellulose (CMC)) 98 % of control; (dose: 300.0 mg/kg/injection, schedule: Q01DX001 (ip), vehicle: carboxymethylcellulose (CMC)) 106 % of control.

Turning to `CCNc1nc2c(N)ncnc2n1C1CC(O)C(CO)O1` (stereo not drawn), the T/C under setting [9] was 96 % of control, the T/C under setting [10] was 98 % of control and the T/C under setting [11] was 93 % of control.

Regarding `S=c1nc[nH]c2c1ncn2Cc1ccc(Cl)c(Cl)c1`, the T/C reads like this: under setting [4], 94 % of control; under setting [7], 108 % of control.

`Cc1cnc2c(Nc3ccc(Cl)cc3)cc(N)nc2n1`: the T/C is 94 % of control (dose: 12.5 mg/kg/injection, schedule: Q01DX001 (ip), vehicle: other); 96 % of control (dose: 25.0 mg/kg/injection, schedule: Q01DX001 (ip), vehicle: other); 96 % of control (dose: 25.0 mg/kg/injection, schedule: Q04DX003 (ip), vehicle: Klucel (hydroxypropylcellulose) (HPC)); 94 % of control and 105 % of control (dose: 50.0 mg/kg/injection, schedule: Q01DX001 (ip), vehicle: other); 94 % of control (dose: 50.0 mg/kg/injection, schedule: Q01DX009 (ip), vehicle: Klucel (hydroxypropylcellulose) (HPC)); 101 % of control (dose: 50.0 mg/kg/injection, schedule: Q04DX003 (ip), vehicle: Klucel (hydroxypropylcellulose) (HPC)).

With `O=C(c1cccnc1)N1CCCC1`, the T/C reads like this: under setting [12], 113 % of control; under setting [3], 109 % of control; under setting [6], 98 % of control.

On to `CC(=O)NCC[CH2][Sn]([c]1ccccc1)([c]1ccccc1)[c]1ccccc1`, for which the T/C by setting is: (dose: 50.0 mg/kg/injection, schedule: Q01DX009 (ip), vehicle: saline) 100 % of control; (dose: 100.0 mg/kg/injection, schedule: Q01DX009 (ip), vehicle: saline) 100 % of control; (dose: 200.0 mg/kg/injection, schedule: Q01DX009 (ip), vehicle: saline) 110 % of control.

For the compound `Brc1ccc(C=C2c3ccccc3-c3ccccc32)cc1`, the T/C reads like this: under setting [12], 100 % of control; under setting [2], 96 % of control; under setting [3], 97 % of control; under setting [5], 97 % of control; under setting [6], 100 % of control; under setting [8], 94 % of control.

In the case of `CC1(C)C2(c3ccccc3)C3C=CC3C12c1ccccc1` (stereo not drawn), the T/C is 109 % of control under setting [1], 112 % of control under setting [4] and 102 % of control under setting [7].

As to `CCCCCCOC(=O)C(C)OC(=O)OCCOCCOC(=O)OC(C)C(=O)OCCCCCC` (stereo not drawn), the T/C is, setting by setting: (dose: 100.0 mg/kg/injection, schedule: Q01DX001 (ip), vehicle: saline) 100 % of control; (dose: 200.0 mg/kg/injection, schedule: Q01DX001 (ip), vehicle: saline) 96 % of control; (dose: 400.0 mg/kg/injection, schedule: Q01DX001 (ip), vehicle: saline) 100 % of control.
